# Experimental data from PMC11079024, “Identification of a family of species-selective complex I inhibitors as potential anthelmintics” (Nature Communications, 2024).
# Like-named read-outs stand apart in the source and are kept apart here.
# Legend:
# [1] = molecular target: C. elegans (N2) complex I (NADH:ubiquinone oxidoreductase) (Caenorhabditis elegans, UniProt P24887+Q93873+Q94360); assay: biochemical; type: biochemical; conditions: for activity at 0.0001 µM / activity at 0.0005 µM / activity at 0.001 µM / activity at 0.0025 µM / activity at 0.005 µM / activity at 0.013 µM / activity at 0.025 µM / activity at 0.063 µM / activity at 0.125 µM / activity at 0.313 µM / activity at 0.625 µM / activity at 1.5 µM / activity at 3 µM / activity at 15 µM / activity at 37.5 µM / activity at 75 µM: read-out: C. elegans mitochondrial complex I activity; for Log IC50 C. elegans complex I: log10 of IC50 in µM
# Procedure, shortened: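 Complex I rate: initial linear slope of A600 over 15 min, expressed as percent of solvent control. Triple freeze-thawed mitochondria (0.2 mg/mL) in KPi pH 7.5, BSA 3 mg/mL, NADH 80 μM, decylubiquinone 60 μM, DCIP 160 μM, antimycin A, KCN.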
# L1 wild-type C. elegans = assay: microbe, parasite or virus in culture; conditions: Caenorhabditis elegans, read-out: C. elegans KCN Survival Assay LC50, estimated from fitted dose-response curves; mean of at least two biological replicates
# [2] = in vitro complex I dose response on C. elegans mitochondria, average of at least two biological replicates, fit in R (DRC), read-out: IC50 C. elegans complex I
# [3] = wild-type (N2) mitochondria, read-out: C. elegans Complex I IC50
# [4] = wild-type C. elegans mitochondria, estimated from fitted dose-response curves, read-out: C. elegans Complex I IC50
# C. elegans (N2) complex I (NADH:ubiquinone oxidoreductase), sequence (Q94360 17-199): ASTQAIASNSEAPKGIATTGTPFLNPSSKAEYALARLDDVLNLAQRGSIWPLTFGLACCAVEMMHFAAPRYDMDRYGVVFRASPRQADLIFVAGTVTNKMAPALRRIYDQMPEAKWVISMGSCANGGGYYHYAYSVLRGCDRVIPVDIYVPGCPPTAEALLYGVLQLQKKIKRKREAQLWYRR
# C. elegans (N2) complex I (NADH:ubiquinone oxidoreductase), sequence (P24887 whole entry): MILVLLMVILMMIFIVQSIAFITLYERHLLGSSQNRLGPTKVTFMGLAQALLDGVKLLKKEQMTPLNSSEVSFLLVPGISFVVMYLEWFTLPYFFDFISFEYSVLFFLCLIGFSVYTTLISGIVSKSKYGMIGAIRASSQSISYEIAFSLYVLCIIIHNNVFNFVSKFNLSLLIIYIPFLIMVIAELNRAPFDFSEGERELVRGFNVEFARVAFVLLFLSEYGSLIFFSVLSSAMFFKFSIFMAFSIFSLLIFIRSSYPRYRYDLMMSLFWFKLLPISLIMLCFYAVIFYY
# C. elegans (N2) complex I (NADH:ubiquinone oxidoreductase), sequence (Q93873 31-482): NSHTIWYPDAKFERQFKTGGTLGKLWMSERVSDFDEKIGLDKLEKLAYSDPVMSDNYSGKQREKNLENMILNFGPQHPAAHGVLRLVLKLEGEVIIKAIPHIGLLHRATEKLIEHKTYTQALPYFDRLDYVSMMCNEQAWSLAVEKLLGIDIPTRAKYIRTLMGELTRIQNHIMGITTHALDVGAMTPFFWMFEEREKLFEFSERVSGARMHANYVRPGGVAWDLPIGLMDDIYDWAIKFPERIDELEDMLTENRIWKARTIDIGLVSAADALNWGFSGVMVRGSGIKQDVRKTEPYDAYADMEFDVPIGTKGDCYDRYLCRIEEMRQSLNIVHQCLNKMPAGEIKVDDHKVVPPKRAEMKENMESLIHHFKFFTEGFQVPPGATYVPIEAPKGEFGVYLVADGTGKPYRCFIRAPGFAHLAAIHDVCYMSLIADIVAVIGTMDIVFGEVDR
structure (smiles),measurement,setting,value
CCCOc1ccc(Cn2cnc3ccccc32)cc1 [Compound 7355741],activity at 0.0001 µM,[1],85.2%
same,activity at 0.0005 µM,[1],94.7%
same,activity at 0.001 µM,[1],89.8%
same,activity at 0.0025 µM,[1],99%
same,activity at 0.005 µM,[1],86.1%
same,activity at 0.013 µM,[1],94.6%
same,activity at 0.025 µM,[1],90.6%
same,activity at 0.063 µM,[1],82.3%
same,activity at 0.125 µM,[1],77.2%
same,activity at 0.313 µM,[1],62.4%
same,activity at 0.625 µM,[1],47.9%
same,activity at 1.5 µM,[1],31.8%
same,activity at 3 µM,[1],15.1%
same,activity at 15 µM,[1],3.6%
same,activity at 37.5 µM,[1],5.38%
same,activity at 75 µM,[1],7.89%
same,IC50,[1]; [2],620 nM
same,Log IC50 C. elegans complex I,[1]; C. elegans mitochondria,-0.21 µM
same,IC50,[1]; [3],620 nM
same,IC50,[1]; [4],620 nM
same,LC50,L1 wild-type C. elegans,7000 nM
Cc1ccc(OCCn2cnc3ccccc32)c(C)c1 [Compound 7706808],activity at 0.0001 µM,[1],101%
same,activity at 0.0005 µM,[1],107%
same,activity at 0.001 µM,[1],103%
same,activity at 0.0025 µM,[1],109%
same,activity at 0.005 µM,[1],101%
same,activity at 0.013 µM,[1],107%
same,activity at 0.025 µM,[1],105%
same,activity at 0.063 µM,[1],101%
same,activity at 0.125 µM,[1],94.3%
same,activity at 0.313 µM,[1],97.4%
same,activity at 0.625 µM,[1],70.9%
same,activity at 1.5 µM,[1],55.5%
same,activity at 3 µM,[1],44.2%
same,activity at 15 µM,[1],16.3%
same,activity at 37.5 µM,[1],13.2%
same,activity at 75 µM,[1],13.5%
same,IC50,[1]; [2],1450 nM
same,Log IC50 C. elegans complex I,[1]; C. elegans mitochondria,0.16 µM
same,IC50,[1]; [4],1450 nM
same,LC50,L1 wild-type C. elegans,12000 nM
Cc1ccccc1OCCCCn1cnc2ccccc21 [Compound 7732524],remaining activity at 0.0001 µM,"[1]; C. elegans mitochondria, 0.0001 µM, Mean, read-out: in vitro complex I activity relative to solvent control",109%
same,remaining activity at 0.0005 µM,"[1]; C. elegans mitochondria, 0.0005 µM, Mean, read-out: in vitro complex I activity relative to solvent control",117%
same,remaining activity at 0.001 µM,"[1]; C. elegans mitochondria, 0.001 µM, Mean, read-out: in vitro complex I activity relative to solvent control",115%
same,remaining activity at 0.0025 µM,"[1]; C. elegans mitochondria, 0.0025 µM, Mean, read-out: in vitro complex I activity relative to solvent control",106%
same,remaining activity at 0.005 µM,"[1]; C. elegans mitochondria, 0.005 µM, Mean, read-out: in vitro complex I activity relative to solvent control",87.1%
same,remaining activity at 0.013 µM,"[1]; C. elegans mitochondria, 0.013 µM, Mean, read-out: in vitro complex I activity relative to solvent control",95.4%
same,remaining activity at 0.025 µM,"[1]; C. elegans mitochondria, 0.025 µM, Mean, read-out: in vitro complex I activity relative to solvent control",84.9%
same,remaining activity at 0.063 µM,"[1]; C. elegans mitochondria, 0.063 µM, Mean, read-out: in vitro complex I activity relative to solvent control",60.5%
same,remaining activity at 0.063 µM,"[1]; C. elegans mitochondria, 0.063 µM, single replicate, read-out: in vitro complex I activity relative to solvent control",65%
same,remaining activity at 0.125 µM,"[1]; C. elegans mitochondria, 0.125 µM, Mean, read-out: in vitro complex I activity relative to solvent control",45.4%
same,remaining activity at 0.125 µM,"[1]; C. elegans mitochondria, 0.125 µM, single replicate, read-out: in vitro complex I activity relative to solvent control",44.7%
same,remaining activity at 0.313 µM,"[1]; C. elegans mitochondria, 0.313 µM, Mean, read-out: in vitro complex I activity relative to solvent control",25.3%
same,remaining activity at 0.313 µM,"[1]; C. elegans mitochondria, 0.313 µM, single replicate, read-out: in vitro complex I activity relative to solvent control",21%
same,remaining activity at 0.625 µM,"[1]; C. elegans mitochondria, 0.625 µM, Mean, read-out: in vitro complex I activity relative to solvent control",10.1%
same,remaining activity at 0.625 µM,"[1]; C. elegans mitochondria, 0.625 µM, single replicate, read-out: in vitro complex I activity relative to solvent control",12.2%
same,remaining activity at 1.5 µM,"[1]; C. elegans mitochondria, 1.5 µM, Mean, read-out: in vitro complex I activity relative to solvent control",2.78%
same,remaining activity at 3 µM,"[1]; C. elegans mitochondria, 3 µM, Mean, read-out: in vitro complex I activity relative to solvent control",0.645%
same,remaining activity at 15 µM,"[1]; C. elegans mitochondria, 15 µM, Mean, read-out: in vitro complex I activity relative to solvent control",0.827%
same,remaining activity at 37.5 µM,"[1]; C. elegans mitochondria, 37.5 µM, Mean, read-out: in vitro complex I activity relative to solvent control",0.871%
same,remaining activity at 75 µM,"[1]; C. elegans mitochondria, 75 µM, Mean, read-out: in vitro complex I activity relative to solvent control",6.44%
same,activity at 0.0001 µM,[1],130%
same,activity at 0.0005 µM,[1],145%
same,activity at 0.001 µM,[1],142%
same,activity at 0.0025 µM,[1],138%
same,activity at 0.005 µM,[1],126%
same,activity at 0.013 µM,[1],120%
same,activity at 0.025 µM,[1],94.3%
same,activity at 0.063 µM,[1],78.2%
same,activity at 0.125 µM,[1],53.5%
same,activity at 0.313 µM,[1],30.1%
same,activity at 0.625 µM,[1],10.6%
same,activity at 1.5 µM,[1],3.27%
same,activity at 3 µM,[1],1.97%
same,activity at 15 µM,[1],1.08%
same,activity at 37.5 µM,[1],3.31%
same,activity at 75 µM,[1],6.44%
same,remaining activity at 0.0001 µM,"[1]; dose 0.0001 µM, wild-type C. elegans, mean of replicates, read-out: in vitro complex I activity relative to solvent control, Mean",109%
same,remaining activity at 0.0005 µM,"[1]; dose 0.0005 µM, wild-type C. elegans, mean of replicates, read-out: in vitro complex I activity relative to solvent control, Mean",117%
same,remaining activity at 0.001 µM,"[1]; dose 0.001 µM, wild-type C. elegans, mean of replicates, read-out: in vitro complex I activity relative to solvent control, Mean",115%
same,remaining activity at 0.0025 µM,"[1]; dose 0.0025 µM, wild-type C. elegans, mean of replicates, read-out: in vitro complex I activity relative to solvent control, Mean",106%
same,remaining activity at 0.005 µM,"[1]; dose 0.005 µM, wild-type C. elegans, mean of replicates, read-out: in vitro complex I activity relative to solvent control, Mean",87.1%
same,remaining activity at 0.013 µM,"[1]; dose 0.013 µM, wild-type C. elegans, mean of replicates, read-out: in vitro complex I activity relative to solvent control, Mean",95.4%
same,remaining activity at 0.025 µM,"[1]; dose 0.025 µM, wild-type C. elegans, mean of replicates, read-out: in vitro complex I activity relative to solvent control, Mean",84.9%
same,remaining activity at 0.063 µM,"[1]; dose 0.063 µM, wild-type C. elegans, mean of replicates, read-out: in vitro complex I activity relative to solvent control, Mean",60.5%
same,remaining activity at 0.063 µM,"[1]; dose 0.063 µM, wild-type C. elegans, single replicate, read-out: in vitro complex I activity relative to solvent control, individual replicate",65%
same,remaining activity at 0.125 µM,"[1]; dose 0.125 µM, wild-type C. elegans, mean of replicates, read-out: in vitro complex I activity relative to solvent control, Mean",45.4%
same,remaining activity at 0.125 µM,"[1]; dose 0.125 µM, wild-type C. elegans, single replicate, read-out: in vitro complex I activity relative to solvent control, individual replicate",44.7%
same,remaining activity at 0.313 µM,"[1]; dose 0.313 µM, wild-type C. elegans, mean of replicates, read-out: in vitro complex I activity relative to solvent control, Mean",25.3%
same,remaining activity at 0.313 µM,"[1]; dose 0.313 µM, wild-type C. elegans, single replicate, read-out: in vitro complex I activity relative to solvent control, individual replicate",21%
same,remaining activity at 0.625 µM,"[1]; dose 0.625 µM, wild-type C. elegans, mean of replicates, read-out: in vitro complex I activity relative to solvent control, Mean",10.1%
same,remaining activity at 0.625 µM,"[1]; dose 0.625 µM, wild-type C. elegans, single replicate, read-out: in vitro complex I activity relative to solvent control, individual replicate",12.2%
same,remaining activity at 1.5 µM,"[1]; dose 1.5 µM, wild-type C. elegans, mean of replicates, read-out: in vitro complex I activity relative to solvent control, Mean",2.78%
same,remaining activity at 3 µM,"[1]; dose 3 µM, wild-type C. elegans, mean of replicates, read-out: in vitro complex I activity relative to solvent control, Mean",0.645%
same,remaining activity at 15 µM,"[1]; dose 15 µM, wild-type C. elegans, mean of replicates, read-out: in vitro complex I activity relative to solvent control, Mean",0.827%
same,remaining activity at 37.5 µM,"[1]; dose 37.5 µM, wild-type C. elegans, mean of replicates, read-out: in vitro complex I activity relative to solvent control, Mean",0.871%
same,remaining activity at 75 µM,"[1]; dose 75 µM, wild-type C. elegans, mean of replicates, read-out: in vitro complex I activity relative to solvent control, Mean",6.44%
same,IC50,[1]; [2],140 nM
same,Log IC50 C. elegans complex I,[1]; C. elegans mitochondria,-0.85 µM
same,IC50,[1]; [3],140 nM
same,IC50,"[1]; wild-type (N2) mitochondria, read-out: C. elegans complex I IC50",104 nM
same,IC50,[1]; [4],140 nM
same,LC50,L1 wild-type C. elegans,6370 nM
